According to US4792554A, “Pyridine compounds, pharaceutical compositions, their use in allergy therapy” (priority 1985, dated 1988):
Structures can show the parent of a compound that is named as a salt. Where two headings read alike, the source gives them in different places.

Legend:
bradykinin = assay: Antagonistic action towards bradykinin: inhibition of bradykinin-induced bronchospasm in anesthetized guinea pigs (Konzett-Rössler); assay type: in vivo, guinea pig; conditions: Cavia porcellus, iv, read-out: Inhibitory action towards bradykinin (ED50)
Protocol: (§1) 1. Antagonistic action towards the allergy mediators (on anesthetized guinea pigs)
(§2) The test substances were administered intravenously in aqueous solution injected in a volume of 1 ml/kg.

[1] = Acute toxicity, mortality within 7 days after single i.p. administration to NMRI mice; conditions: in vivo, ip, mouse i.p.
Protocol: The LD50 values were determined by the standard method of the mortality occurring within 7 days after a single intraperitoneal (i.p.) administration to NMRI mice (NMRI=Naval Medical Research Institute).

mast cells = assay: Passive cutaneous anaphylaxis (PCA) in the rat, inhibition of mediator release (protective effect on mast cells); assay type: in vivo; conditions: for inhibition in vivo at 25 mg/kg: oral dose 25 mg/kg; for inhibition in vivo at 50 mg/kg: oral dose 50 mg/kg
Source text: (a) Passive cutaneous anaphylaxis (PCA) in the rat (PCA test) Passive cutaneous anaphylaxis is an IgE-mediated allergy of the immediate type (type I). In this model, antibodies bound to mast cells and basophilic granulocytes react with an intravenously administered antigen with release of excessive amount of the allergy mediators. The histamine which is released during this can be visualized by simultaneous application of Evans blue to the shaven flanks of the rats. Photometric evaluation of the color intensity was used to determine, by means of the percentage inhibition of mediator release compared with untreated control animals, the protective effect on mast cells of the compound according to the invention after oral administration.

[2] = tested on: rat peritoneal mast cells; assay: Histamine release from isolated rat mast cells induced by calcium ionophore A 23 187; assay type: cell-based; conditions: for IC50: Mast cell, 0.25 h, 15 min incubation, A 23 187 10^-6 g/ml, read-out: Inhibitory action in the Ca ionophore test IC50
Protocol: (b) Histamine release from isolated rat mast celss induced by calcium ionophore A 23 187 […] […] For this purpose, 10^4 cells were suspended in Clicks/RPMI (50:50, vol.; supplied by Serva, Heidelberg) tissue culture medium, incubated with the test substance for 15 minutes, and then treated with calcium ionophore A 23 187 at a concentration of 10^-6 g/ml. The released histamine was determined by high-pressure liquid chromatography (HPLC). The measure used for the inhibitory action was the IC50 which represents the molar concentration (mol/l) at which the induced histamine release was decreased to one half that of cells which had not been pretreated with a product. In this context, IC50 values above 10^-5 mol/l are regarded as therapeutically irrelevant.

[3] = state of the art; cited from earlier work
[4] = long-term therapy, state of the art; cited from earlier work
[5] = cited from earlier work
histamine = assay: Antagonistic action towards histamine: inhibition of histamine-induced bronchospasm in anesthetized guinea pigs (Konzett-Rössler); assay type: in vivo, guinea pig; conditions: Cavia porcellus, iv, read-out: Inhibitory action towards histamine (ED50)
Protocol: as §1, §2

[6] = Anticholinergic action in the Konzett-Rössler model; assay type: in vivo, guinea pig
[7] = tested on: platelet activating factor (PAF); assay: Antagonism of PAF-induced bronchospasm in anesthetized rats; assay type: in vivo, rat; conditions: PAF test
Protocol: The compounds of the formula I and their salts additionally show a pronounced inhibitory action on platelet activating factor (PAF) and the leukotrienes, which are likewise released as spasmogenic mediators from the mast cells during the course of the immediate anaphylactic reaction. It was possible to antagonize the bronchospasm induced in anesthetized rats by administration of PAF by, for example, intravenous administration of the compound of Example 3 with a ED50 of 1-3 mg/kg. The said products of the state of the art, such as oxatomide, ketotiphen and terfenadine, have no action in this test. The contractions induced by calcium ionophore A 23 187 in isolated strips of lung and the isolated trachea of guinea pigs were inhibited by, for example, the compound of Example 3 with an IC50 of 0.1-0.3 μg/ml. Since calcium ionophore A 23 187 stimulates 5-lipoxygenase and thus promotes the formation of spasmogenic leukotrienes, a possible interpretation of the result of this experiment is that the compounds according to the invention are potent leukotriene inhibitors.

[8] = anesthetized guinea pigs, dose reducing induced spasm to one half

SMILES: Cc1cc(N2CCSCC2)c([N+](=O)[O-])c(C)n1.Cl [4-(2,6-dimethyl-3-nitro-4-pyridyl)thiomorpholine hydrochloride, reference compound]
- ED50 (bradykinin; [8]): 3.16 mg/kg
- LD50 at 168 h [1]: 150 to 300 mg/kg
- inhibition in vivo at 12.5 mg/kg (mast cells; Mast cell, oral dose 12.5 mg/kg): 0%
- inhibition in vivo at 25 mg/kg (mast cells; Mast cell): 0%
- inhibition in vivo at 50 mg/kg (mast cells; Mast cell): 13%
- protective effect on mast cells in PCA test (in words) (mast cells; oral administration): inactive
- inhibition of histamine release in the Ca ionophore test (in words) [2]: inactive
- IC50 [2]: < 100000 nM

SMILES: COc1ccc(CCN2CCC(Nc3nc4ccccc4n3Cc3ccc(F)cc3)CC2)cc1 [ASTEMIZOLE]
- solubility in water [3]: insolubility in water
- weight gain [4]: undesired weight gain
- sedation ([5]; side effect, state of the art): no sedative side effect

SMILES: Cc1cc(NCCN2CCN(C(c3ccccc3)c3ccccc3)CC2)c([N+](=O)[O-])c(C)[n+]1[O-].Cl.Cl.Cl.O.O [Example 1, 2,6-Dimethyl-3-nitro-4-[(2-{4-diphenylmethyl-1-piperazinyl}ethyl)amino]pyridine 1-oxide trihydrochloride dihydrate]
- ED50 (histamine): 0.3 to 1 mg/kg
- ED50 (bradykinin): 1 to 3 mg/kg
- LD50 at 168 h [1]: > 150 mg/kg
- inhibition in vivo at 50 mg/kg (mast cells; Mast cell): 91%
- IC50 [2]: 100 nM

SMILES: Cc1cc(NCCN2CCN(Cc3ccccc3)CC2)c([N+](=O)[O-])c(C)n1 [Example 2, 4-[(2-(4-benzyl-1-piperazinyl)ethyl)amino]-2,6-dimethyl-3-nitropyridinetrihydrochloride]
- inhibition in vivo at 50 mg/kg (mast cells; Mast cell): 67%
- IC50 [2]: 10000 nM

SMILES: Cc1cc(NCCN2CCN(C(c3ccccc3)c3ccccc3)CC2)c(N)c(C)n1.Cl.Cl.Cl.O.O [Example 4, 3-amino-2,6-dimethyl-4-[(2-{4-diphenylmethyl-1-piperazinyl}ethyl)amino]pyridine trihydrochloride dihydrate]
- inhibition in vivo at 50 mg/kg (mast cells; Mast cell): 73%
- IC50 [2]: 50 nM
- anticholinergic action [6]: strong anticholinergic action

SMILES: Cc1cc(NCCN2CCN(C(c3ccccc3)c3ccccc3)CC2)c(C(=O)O)c(C)n1.Cl.Cl.Cl.O.O [Example 5, 2,6-dimethyl-4-[(2-{4-diphenylmethyl-1-piperazinyl}-ethyl)amino]pyridine-3-carboxylic acid trihydrochloride dihydrate]
- ED50 (histamine): 1 to 3 mg/kg
- ED50 (bradykinin): 3 mg/kg
- LD50 at 168 h [1]: 300 to 600 mg/kg
- inhibition in vivo at 50 mg/kg (mast cells; Mast cell): 91%
- IC50 [2]: 100 nM
- anticholinergic action [6]: strong anticholinergic action

SMILES: Cc1cc(NCCN2CCC(=C(c3ccccc3)c3ccccc3)CC2)c([N+](=O)[O-])c(C)n1.Cl.Cl.O.O [Example 6, 2,6-dimethyl-3-nitro-4-[(2-{4-diphenylmethylene-1-piperidyl}ethyl)amino]pyridine dihydrochloride dihydrate]
- ED50 (histamine): 1 to 3 mg/kg
- ED50 (bradykinin): 3 to 6 mg/kg
- LD50 at 168 h [1]: 600 to 1200 mg/kg
- inhibition in vivo at 50 mg/kg (mast cells; Mast cell): 91%

SMILES: Cc1cc(NCCCN2CCN(C(c3ccccc3)c3ccccc3)CC2)c([N+](=O)[O-])c(C)n1 [Example 7]
- ED50 (histamine; [8]): 3 mg/kg
- ED50 (bradykinin; [8]): 3 to 10 mg/kg
- LD50 at 168 h [1]: 150 to 300 mg/kg
- inhibition in vivo at 50 mg/kg (mast cells; Mast cell): 55%
- IC50 [2]: 10 nM

SMILES: Cc1cc(NCCN2CCN(CC=Cc3ccccc3)CC2)c([N+](=O)[O-])c(C)n1 [Example 8]
- ED50 (histamine; [8]): 3 mg/kg
- ED50 (bradykinin; [8]): 3 to 10 mg/kg
- LD50 at 168 h [1]: 75 to 150 mg/kg
- inhibition in vivo at 50 mg/kg (mast cells; Mast cell): 60%
- IC50 [2]: 100 nM

SMILES: Cc1cc(NCCN2CCN(C(c3ccccc3)c3ccccc3)CC2)c(C#N)c(C)n1 [Example 9]
- ED50 (histamine; [8]): 0.3 to 1 mg/kg
- ED50 (bradykinin; [8]): 3 to 10 mg/kg
- LD50 at 168 h [1]: 300 to 600 mg/kg
- inhibition in vivo at 50 mg/kg (mast cells; Mast cell): 64%
- IC50 [2]: 10 nM

SMILES: Cc1cc(NCCN2CCN(C(c3ccccc3)c3ccccc3)CC2)c(C#N)c(C)[n+]1[O-] [Example 10]
- ED50 (histamine; [8]): 0.1 to 0.3 mg/kg
- ED50 (bradykinin; [8]): 1 to 3 mg/kg
- LD50 at 168 h [1]: 75 to 150 mg/kg
- inhibition in vivo at 50 mg/kg (mast cells; Mast cell): 91%
- IC50 [2]: < 10 nM

SMILES: CCCc1cc(NCCN2CCN(C(c3ccccc3)c3ccccc3)CC2)c([N+](=O)[O-])c(CCC)n1 [Example 12]
- inhibition in vivo at 50 mg/kg (mast cells; Mast cell): 61%

SMILES: Cc1cc(N(C)CCN2CCN(C(c3ccccc3)c3ccccc3)CC2)c([N+](=O)[O-])c(C)n1 [Example 13]
- ED50 (histamine; [8]): 1 to 3 mg/kg
- ED50 (bradykinin; [8]): 10 mg/kg
- LD50 at 168 h [1]: 150 to 300 mg/kg
- inhibition in vivo at 50 mg/kg (mast cells; Mast cell): 68%
- IC50 [2]: < 10 nM

SMILES: Cc1cc(NCCN2CCN(C(c3ccccc3)c3ccc(Cl)cc3)CC2)c([N+](=O)[O-])c(C)n1 (stereo not shown) [Example 14]
- ED50 (histamine; [8]): 1 to 3 mg/kg
- ED50 (bradykinin; [8]): 3 to 10 mg/kg
- LD50 at 168 h [1]: 150 to 300 mg/kg
- inhibition in vivo at 50 mg/kg (mast cells; Mast cell): 55%
- IC50 [2]: 1000 nM

SMILES: Cc1cc(NCCN2CCN(C(c3ccc(F)cc3)c3ccc(F)cc3)CC2)c([N+](=O)[O-])c(C)n1 [Example 15]
- ED50 (histamine; [8]): 1 to 3 mg/kg
- ED50 (bradykinin; [8]): 3 to 6 mg/kg
- LD50 at 168 h [1]: 300 to 600 mg/kg
- inhibition in vivo at 50 mg/kg (mast cells; Mast cell): 59%
- IC50 [2]: 100 nM

SMILES: Cc1cc(NCCN2CCN(C(c3ccncc3)c3ccc(Cl)cc3)CC2)c([N+](=O)[O-])c(C)n1 (stereo not shown) [Example 16]
- ED50 (histamine; [8]): 1 mg/kg
- ED50 (bradykinin; [8]): 1 mg/kg
- LD50 at 168 h [1]: 300 to 600 mg/kg
- inhibition in vivo at 25 mg/kg (mast cells; Mast cell): 46%
- inhibition in vivo at 50 mg/kg (mast cells; Mast cell): 75%
- IC50 [2]: 100 nM

SMILES: Cc1cc(NCCN2CCC(C(O)(c3ccccc3)c3ccccc3)CC2)c([N+](=O)[O-])c(C)n1 [Example 17, 4-[(2-{4-hydroxy(diphenyl)methyl-1-piperidyl}ethyl)amino]-2,6-dimethyl-3-nitropyridine dihydrochloride]
- ED50 (histamine; [8]): 0.3 mg/kg
- ED50 (bradykinin; [8]): 3 to 10 mg/kg
- LD50 at 168 h [1]: 75 to 150 mg/kg
- inhibition in vivo at 50 mg/kg (mast cells; Mast cell): 91%
- IC50 [2]: < 10 nM

SMILES: O=[N+]([O-])c1cnccc1NCCN1CCN(C(c2ccccc2)c2ccccc2)CC1 [Example 21]
- ED50 (histamine; [8]): 0.02 mg/kg
- ED50 (bradykinin; [8]): 0.03 mg/kg
- LD50 at 168 h [1]: 150 to 300 mg/kg

SMILES: CC(C)(C)c1ccc(C(O)CCCN2CCC(C(O)(c3ccccc3)c3ccccc3)CC2)cc1 (stereo not shown) [terfenadine]
- action on PAF / PAF-induced bronchospasm (in words) [7]: no action
- solubility in water [3]: insolubility in water
- weight gain [4]: undesired weight gain
- sedation ([5]; in vivo): no sedative side effect
